Structures can show the parent of a compound that is named as a salt. Where two headings read alike, the source gives them in different places.
How the values were obtained:
[1] = Relative Molar Extinction Coefficients (absorbance of dye formed with N-ethylanilinopropanamine, POD and H2O2); assay type: physicochemical; conditions: pH 6.5 phosphate buffer, same molar concentration, coupled with N-ethylanilinopropanamine hydrochloride
Procedure: The relative absorbance of MBTH and sodium carboxy MBTH, an illustrative soluble hydrazone compound, was measured and compared. Since each compound was measured at the same molar concentration, the molar extinction was proportional to the […].
Each sample contained the following:
1 mL phosphate buffer, 0.035M, pH 6.5
10 μL R-MBTH solution, 10 mM, where R=H or COONa
100 μL N-ethylanilinopropanamine hydrochloride, 10 mM
10 μL POD solution, ~120 IU/mL
A 1-mL aliquot of each solution was transferred to a cuvette and diluted with an addition 2 mL of phosphate buffer solution.

[2] = Heat Stability on coated polyester fabric at 120° C.; assay type: physicochemical; conditions: for Density: 120° C., absorbance at 310 nm
Procedure: In order to evaluate the heat stability of sodium carboxy MBTH, 38 mg. of either MBTH.HCl or NaCMBTH was added to 1.2 mL water to dissolve. Then, 0.75 mL of this solution was added to 21 mg Hydrisel SX 660, a commercial surfactant and […] 0.1% ACP polymer (ISP Technologies), prepared in 70% isopropanol solution. Each solution was coated onto a 4-inch wide polyester fabric in a thin layer and dried at 40° C. for fifteen minutes. The coated fabric was sealed in an airtight foil bag and stored at 4° C.
Small samples (2 cm×5 cm) of each coated fabric were placed into a 120° C. oven and removed at appropriate intervals. The heat-stressed fabric samples were assayed spectrophotometrically.
The fabric samples were placed into a tared test tube and weighed. Ten mL of 20 mM phosphate buffer, pH 7.0, was added. The tubes were capped and agitated for ten minutes at room temperature. Absorbance at 310 nm was read for each sample and the values were compared against a standard curve.

[3] = Solubility Comparison in water; assay type: physicochemical; conditions: for Water added: to dissolve 100 mg completely
Procedure: (§1) The solubility of MBTH.HCl was compared with that of NaCMBTH. One hundred mg samples of each of MBTH.HCl (Aldrich) and NaCMBTH were placed into test tubes. Water was added in 50 μ-L aliquots until the sample completely dissolved.

[4] = Solubility Comparison in pH 7 buffer; assay type: physicochemical; conditions: for solubility: 0.1m phosphate buffer, aqueous buffer, pH 7 buffer (phosphate, 0.1M); for Water added: to dissolve 100 mg completely, pH 7 buffer (phosphate, 0.1M) instead of water
Procedure: as §1
An identical experiment was performed using pH 7 buffer (phosphate, 0.1M) instead of water.

[5] = cited from earlier work

Absorbance at 600 nm [1] [absorbance units]	Density ([2]; time 0) [mg/m^2]	Density ([2]; time 4 (hours)) [mg/m^2]	heat stability ([2]; after only two hours at 120° C.)	solubility [3] [mg/mL]	Water added [3] [µL]	solubility [4] [mg/mL]	Water added [4] [µL]	Density ([2]; time 6 (hours)) [mg/m^2]	Density ([2]; time 23 (hours)) [mg/m^2]	heat stability ([2]; after 23 hours at 120° C.)	SMILES	water solubility of the dye formed in the color reactions [5]	heat stability ([5]; dry form, 60° C., as noted in U.S. Pat. No. 4,101,381)	usable pH (autoxidative color reaction otherwise) ([5]; pH, absence of hydrogen peroxide)	solubility in water compared with MBTH ([5]; U.S. Pat. No. 4,101,381)	heat stability ([2]; after six hours at 120° C.)
0.1513	114.7	10.2	effectively decomposed	34	2900	< 10	> 9600				Cn1c(=NN)sc2ccccc21 [MBTH.HCl, 3-methyl benzothiazolone-2-hydrazone HCL]	relatively poor water solubility	insufficiently stable	below 7		
											Cn1c(=NNS(=O)(=O)O)sc2ccccc21 [3-methyl-2-sulfonyl-benzothiazolononhydrazone]				much poorer solubility in water than MBTH	
0.2115	75.4	50.4		87	1150	174	575	51.2	50.3	retains most of its activity	Cn1c(=NN)sc2cc(C(=O)O)ccc21 [NaCMBTH, 3-methylbenzothiazolone-2-hydrazone-6-carboxylic acid, sodium salt]					still viable

— patent publication US5710012A, “Salt of 6-carboxy-3-methylbenzothiazolone hydrazone hydrate in colorimetric determination of hydrogen peroxide” (ActiMed Laboratories, Inc., priority 1994, dated 1998)
